Experimental data reported in article PMC9736855, “Discovery of 3-Amino-1H-pyrazole-Based Kinase Inhibitors to Illuminate the Understudied PCTAIRE Family” (International Journal of Molecular Sciences, 2022).

What was measured:
Assay in all cases: DSF
Format in all cases: binding
STK3 = target: T1, STK3 (Homo sapiens, UniProt Q13188)
T1 construct: purchased in-house DSF panel (SGC Frankfurt)
T1 sequence (Q13188 16-313): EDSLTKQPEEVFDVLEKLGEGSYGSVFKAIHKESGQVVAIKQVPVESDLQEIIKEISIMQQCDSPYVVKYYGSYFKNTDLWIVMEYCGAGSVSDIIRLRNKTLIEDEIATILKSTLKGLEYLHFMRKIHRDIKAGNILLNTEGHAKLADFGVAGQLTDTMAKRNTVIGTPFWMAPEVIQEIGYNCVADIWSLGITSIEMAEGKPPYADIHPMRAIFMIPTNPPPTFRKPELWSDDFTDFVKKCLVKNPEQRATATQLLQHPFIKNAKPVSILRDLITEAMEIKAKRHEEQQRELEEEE
Experimental: Recombinant protein kinase domains with a concentration of 2 μM were mixed with a 10 μM compound solution in DMSO, 20 mM HEPES, pH 7.5, and 500 mM NaCl. SYPRO Orange (5000×, Invitrogen) was added as a fluorescence probe (1 µl per mL). Subsequently, temperature-dependent protein unfolding profiles were measured, using the QuantStudio™ 5 realtime PCR machine (Thermo Fisher, Waltham, MA, USA). […] The temperature was raised with a step rate of 3 °C per minute. Data points were analyzed with the internal software (Thermal Shift SoftwareTM Version 1.4, Thermo Fisher) using the Boltzmann equation to determine the inflection point of the transition curve [56]. Differences in melting temperature are given as ΔTm values in °C. Measurements were performed in duplicates.

CAMK4 = target: T2, CAMK4 (Homo sapiens, UniProt Q16566)
T2 construct: purchased in-house DSF panel (SGC Frankfurt)
T2 sequence (Q16566 46-300): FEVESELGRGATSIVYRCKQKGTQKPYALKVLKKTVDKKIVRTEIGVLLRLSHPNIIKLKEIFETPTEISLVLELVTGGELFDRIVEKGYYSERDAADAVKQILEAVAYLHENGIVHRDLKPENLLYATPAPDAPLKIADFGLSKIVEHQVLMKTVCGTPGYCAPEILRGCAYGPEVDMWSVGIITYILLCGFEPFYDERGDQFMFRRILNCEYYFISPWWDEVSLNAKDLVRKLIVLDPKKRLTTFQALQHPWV
Experimental: (§1) Measurements were performed in duplicates.

MELK = target: T3, MELK (Homo sapiens, UniProt Q14680)
T3 construct: purchased in-house DSF panel (SGC Frankfurt)
T3 sequence (Q14680 whole entry): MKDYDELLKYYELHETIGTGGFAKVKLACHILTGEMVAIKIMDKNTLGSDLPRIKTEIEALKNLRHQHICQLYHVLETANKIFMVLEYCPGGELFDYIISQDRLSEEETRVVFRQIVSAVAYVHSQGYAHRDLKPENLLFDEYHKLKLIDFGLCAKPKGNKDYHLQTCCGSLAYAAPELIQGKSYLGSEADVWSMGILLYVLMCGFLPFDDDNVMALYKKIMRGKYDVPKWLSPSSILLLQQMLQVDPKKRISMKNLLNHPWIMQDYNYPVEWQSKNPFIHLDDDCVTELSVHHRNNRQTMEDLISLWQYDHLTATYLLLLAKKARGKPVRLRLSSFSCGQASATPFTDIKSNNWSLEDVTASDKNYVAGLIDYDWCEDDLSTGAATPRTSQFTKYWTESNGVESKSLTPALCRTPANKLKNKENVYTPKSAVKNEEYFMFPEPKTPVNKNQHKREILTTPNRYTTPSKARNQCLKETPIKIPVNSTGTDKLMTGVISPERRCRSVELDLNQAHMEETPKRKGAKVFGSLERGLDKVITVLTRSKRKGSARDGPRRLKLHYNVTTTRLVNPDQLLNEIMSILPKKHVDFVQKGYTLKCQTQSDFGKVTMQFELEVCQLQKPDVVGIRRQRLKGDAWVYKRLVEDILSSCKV
Experimental: as §1

MERTK = target: T4, MERTK (Homo sapiens, UniProt Q12866)
T4 construct: purchased in-house DSF panel (SGC Frankfurt)
T4 sequence (Q12866 570-864): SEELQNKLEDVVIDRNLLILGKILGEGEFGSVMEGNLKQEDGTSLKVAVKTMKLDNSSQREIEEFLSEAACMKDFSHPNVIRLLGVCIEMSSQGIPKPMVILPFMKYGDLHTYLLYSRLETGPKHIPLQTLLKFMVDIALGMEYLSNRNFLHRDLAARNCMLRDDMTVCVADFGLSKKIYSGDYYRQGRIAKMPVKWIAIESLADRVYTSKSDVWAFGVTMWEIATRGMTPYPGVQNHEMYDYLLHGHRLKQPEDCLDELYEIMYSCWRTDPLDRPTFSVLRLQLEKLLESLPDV
Experimental: as §1

EPHA7 = target: T5, EPHA7 (Homo sapiens, UniProt Q15375)
T5 construct: purchased in-house DSF panel (SGC Frankfurt)
T5 sequence (Q15375 590-899): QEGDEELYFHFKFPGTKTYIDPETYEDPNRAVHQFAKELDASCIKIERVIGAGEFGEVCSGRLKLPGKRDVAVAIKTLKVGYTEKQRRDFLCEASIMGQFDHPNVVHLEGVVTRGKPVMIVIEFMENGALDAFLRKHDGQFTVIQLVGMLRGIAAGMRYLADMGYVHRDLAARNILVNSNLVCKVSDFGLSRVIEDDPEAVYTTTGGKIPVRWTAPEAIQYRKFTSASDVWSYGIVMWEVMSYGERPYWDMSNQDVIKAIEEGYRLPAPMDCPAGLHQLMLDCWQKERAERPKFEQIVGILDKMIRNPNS
Experimental: as §1

EPHB3 = target: T6, EPHB3 (Homo sapiens, UniProt P54753)
T6 construct: purchased in-house DSF panel (SGC Frankfurt)
T6 sequence (P54753 616-910): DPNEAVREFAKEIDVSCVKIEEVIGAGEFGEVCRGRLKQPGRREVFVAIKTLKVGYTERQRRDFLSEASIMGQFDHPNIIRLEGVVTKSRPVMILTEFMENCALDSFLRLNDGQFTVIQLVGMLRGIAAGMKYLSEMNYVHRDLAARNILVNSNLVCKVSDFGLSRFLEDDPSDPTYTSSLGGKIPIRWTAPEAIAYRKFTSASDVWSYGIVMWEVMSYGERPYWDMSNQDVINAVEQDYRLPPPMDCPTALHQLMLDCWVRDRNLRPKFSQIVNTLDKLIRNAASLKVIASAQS
Experimental: as §1

CDC42BPA = target: T7, CDC42BPA (Homo sapiens, UniProt Q5VT25)
T7 construct: purchased in-house DSF panel (SGC Frankfurt)
T7 sequence (Q5VT25 1-414): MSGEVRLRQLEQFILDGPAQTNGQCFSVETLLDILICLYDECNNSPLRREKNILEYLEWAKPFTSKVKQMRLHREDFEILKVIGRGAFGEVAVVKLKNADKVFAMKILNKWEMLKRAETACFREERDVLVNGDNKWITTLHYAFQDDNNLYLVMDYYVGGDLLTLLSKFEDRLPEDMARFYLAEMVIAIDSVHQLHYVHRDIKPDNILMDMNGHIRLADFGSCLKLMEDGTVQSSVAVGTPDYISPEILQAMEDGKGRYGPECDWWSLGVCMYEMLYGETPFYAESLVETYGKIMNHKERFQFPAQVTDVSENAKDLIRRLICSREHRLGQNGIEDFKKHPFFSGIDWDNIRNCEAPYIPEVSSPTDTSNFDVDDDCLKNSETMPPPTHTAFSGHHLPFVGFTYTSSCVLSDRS
Experimental: as §1

PLK4 = target: T8, PLK4 (Homo sapiens, UniProt O00444)
T8 construct: purchased in-house DSF panel (SGC Frankfurt)
T8 sequence (O00444 2-275): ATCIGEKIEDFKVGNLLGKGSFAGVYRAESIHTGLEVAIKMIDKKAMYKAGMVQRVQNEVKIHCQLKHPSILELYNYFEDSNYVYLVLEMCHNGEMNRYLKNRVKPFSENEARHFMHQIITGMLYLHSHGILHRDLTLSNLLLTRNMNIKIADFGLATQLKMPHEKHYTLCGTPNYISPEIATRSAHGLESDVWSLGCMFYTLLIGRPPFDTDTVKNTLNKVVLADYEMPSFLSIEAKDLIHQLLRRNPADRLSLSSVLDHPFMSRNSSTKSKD
Experimental: as §1

MAPK13 = target: T9, MAPK13 (Homo sapiens, UniProt O15264)
T9 construct: purchased in-house DSF panel (SGC Frankfurt)
T9 sequence (O15264 1-365): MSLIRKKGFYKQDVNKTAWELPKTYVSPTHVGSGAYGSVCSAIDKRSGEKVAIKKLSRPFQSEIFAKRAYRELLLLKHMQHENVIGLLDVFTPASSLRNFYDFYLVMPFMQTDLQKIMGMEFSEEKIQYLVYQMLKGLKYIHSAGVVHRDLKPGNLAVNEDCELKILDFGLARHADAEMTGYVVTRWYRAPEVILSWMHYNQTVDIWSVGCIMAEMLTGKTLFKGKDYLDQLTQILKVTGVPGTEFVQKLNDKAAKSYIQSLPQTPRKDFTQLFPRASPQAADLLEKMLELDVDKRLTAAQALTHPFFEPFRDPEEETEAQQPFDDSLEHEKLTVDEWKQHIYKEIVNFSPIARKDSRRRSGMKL
Experimental: as §1

MAP2K7 = target: T10, MAP2K7 (Homo sapiens, UniProt O14733)
T10 construct: purchased in-house DSF panel (SGC Frankfurt)
T10 sequence (O14733 120-380): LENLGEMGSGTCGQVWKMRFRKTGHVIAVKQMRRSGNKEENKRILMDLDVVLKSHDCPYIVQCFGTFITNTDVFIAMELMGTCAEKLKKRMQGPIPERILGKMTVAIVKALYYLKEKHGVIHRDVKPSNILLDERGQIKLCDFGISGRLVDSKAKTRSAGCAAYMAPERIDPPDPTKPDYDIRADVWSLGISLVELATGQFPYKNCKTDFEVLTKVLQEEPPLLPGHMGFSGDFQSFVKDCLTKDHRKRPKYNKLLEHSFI
Experimental: as §1

PAK1 = target: T11, PAK1 (Homo sapiens, UniProt Q13153)
T11 construct: purchased in-house DSF panel (SGC Frankfurt)
T11 sequence (Q13153 249-545): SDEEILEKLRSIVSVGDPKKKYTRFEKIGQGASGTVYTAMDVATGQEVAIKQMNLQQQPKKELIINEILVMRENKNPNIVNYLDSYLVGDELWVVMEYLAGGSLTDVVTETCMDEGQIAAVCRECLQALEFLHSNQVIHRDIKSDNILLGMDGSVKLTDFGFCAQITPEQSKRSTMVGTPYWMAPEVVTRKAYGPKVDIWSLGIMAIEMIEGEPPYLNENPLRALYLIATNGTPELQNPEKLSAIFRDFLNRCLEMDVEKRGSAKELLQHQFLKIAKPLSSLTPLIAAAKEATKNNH
Experimental: as §1

WNK1 = target: T12, WNK1 (Homo sapiens, UniProt Q9H4A3)
T12 construct: purchased in-house DSF panel (SGC Frankfurt)
T12 sequence (Q9H4A3 206-483): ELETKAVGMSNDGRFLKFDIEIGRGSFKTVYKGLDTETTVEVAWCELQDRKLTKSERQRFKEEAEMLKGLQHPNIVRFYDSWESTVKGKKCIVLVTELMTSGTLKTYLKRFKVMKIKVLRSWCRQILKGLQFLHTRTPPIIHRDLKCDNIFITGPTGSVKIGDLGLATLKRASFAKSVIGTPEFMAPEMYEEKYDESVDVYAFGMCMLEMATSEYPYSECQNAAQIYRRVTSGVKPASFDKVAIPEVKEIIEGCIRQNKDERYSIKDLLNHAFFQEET
Experimental: as §1

STK4 = target: T13, STK4 (Homo sapiens, UniProt Q13043)
T13 construct: purchased in-house DSF panel (SGC Frankfurt)
T13 sequence (Q13043 30-281): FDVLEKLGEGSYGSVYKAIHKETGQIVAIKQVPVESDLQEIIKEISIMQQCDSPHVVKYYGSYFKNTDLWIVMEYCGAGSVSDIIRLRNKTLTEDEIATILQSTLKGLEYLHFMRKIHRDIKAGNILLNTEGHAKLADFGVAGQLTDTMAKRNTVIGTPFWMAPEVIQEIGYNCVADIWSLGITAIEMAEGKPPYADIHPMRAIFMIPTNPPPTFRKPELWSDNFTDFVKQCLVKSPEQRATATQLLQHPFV
Experimental: as §1

STK10 = target: T14, STK10 (Homo sapiens, UniProt O94804)
T14 construct: purchased in-house DSF panel (SGC Frankfurt)
T14 sequence (O94804 18-317): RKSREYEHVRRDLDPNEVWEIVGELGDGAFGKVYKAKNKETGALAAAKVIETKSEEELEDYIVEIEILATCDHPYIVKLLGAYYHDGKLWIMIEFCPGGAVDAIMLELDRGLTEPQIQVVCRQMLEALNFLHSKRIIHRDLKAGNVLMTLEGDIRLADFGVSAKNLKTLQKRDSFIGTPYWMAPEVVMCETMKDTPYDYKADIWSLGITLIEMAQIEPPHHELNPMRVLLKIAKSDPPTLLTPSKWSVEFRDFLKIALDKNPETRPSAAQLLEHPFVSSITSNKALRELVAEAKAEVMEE
Experimental: as §1

SMILES | ΔTm STK3 (STK3) [°C] | ΔTm CAMK4 (CAMK4) [°C] | ΔTm MELK (MELK) [°C] | ΔTm MERTK (MERTK) [°C] | ΔTm EPHA7 (EPHA7) [°C] | ΔTm EPHB3 (EPHB3) [°C] | ΔTm CDC42BPA (CDC42BPA) [°C] | ΔTm PLK4 (PLK4) [°C] | ΔTm MAPK13 (MAPK13) [°C] | ΔTm MAP2K7 (MAP2K7) [°C] | ΔTm PAK1 (PAK1) [°C] | ΔTm WNK1 (WNK1) [°C] | ΔTm STK4 (STK4) [°C] | ΔTm STK10 (STK10) [°C]
CC(C)OC(=O)c1cc(Nc2ccnc(NCc3ccc(NC(=O)OC(C)(C)C)cc3)n2)n[nH]1 [42d, isopropyl 3-((2-((4-((tert-butoxycarbonyl)amino)benzyl)amino)pyrimidin-4-yl)amino)-1H-pyrazole-5-carboxylate] | -1.0 | 0.4 | -0.8 | -0.8 | -3.1 | 1.3 | -0.7 | 3.7 | 1.0 | -0.3 | -1.1 | 0.1 | -0.5 | -0.7
CN[C@@H]1C[C@H]2O[C@@](C)([C@@H]1OC)n1c3ccccc3c3c4c(c5c6ccccc6n2c5c31)C(=O)NC4 [staurosporine, reference compound] | 16.6 | 8.6 | 13.8 | 6.6 | 10.3 | 5.0 | 2.8 | 16.0 | 7.5 | 8.4 | 6.6 | 0.9 | 14.9 | 23.3
COC(=O)c1cc(Nc2ccnc(NCc3ccc(NC(=O)OC(C)(C)C)cc3)n2)[nH]n1 [21i, methyl 5-((2-((4-((tert-butoxycarbonyl)amino)benzyl)amino)pyrimidin-4-yl)amino)-1H-pyrazole-3-carboxylate] | 1.2 | -0.4 | 0.9 | -0.1 | 0.6 | 0.4 | -0.5 | 4.1 | 1.0 | 0.5 | -0.4 | 0.6 | 2.2 | -0.7
CC(C)(C)OC(=O)Nc1ccc(CNc2nccc(Nc3cc(C(=O)OC(C)(C)C)[nH]n3)n2)cc1 [43d, tert-butyl 3-((2-((4-((tert-butoxycarbonyl)amino)benzyl)amino)pyrimidin-4-yl)amino)-1H-pyrazole-5-carboxylate] | 0.3 | 1.2 | 0.2 | -0.8 | -3.4 | 1.7 | -0.8 | 5.5 | 1.3 | -3.0 | -0.6 | -0.1 | -0.2 | -0.8
COC(=O)c1cc(Nc2ccnc(NCCOCCNC(=O)OC(C)(C)C)n2)[nH]n1 [21d, methyl 5-((2-((2-(2-((tert-butoxycarbonyl)amino)ethoxy)ethyl)amino)pyrimidin-4-yl)amino)-1H-pyrazole-3-carboxylate] | 1.6 | -0.2 | 0.8 | 1.9 | 1.3 | 0.8 | 0.5 | 3.0 | 0.5 | 0.7 | 1.1 | 0.9 | 1.6 | -0.7
N#CCc1ccc(Nc2nccc(Nc3cc(C4CC4)[nH]n3)n2)cc1 [compound 1, reference compound] | 11.6 | 5.4 | 9.8 | 4.4 | 4.9 | 5.1 | -0.1 | 11.1 | 8.0 | 12.0 | 3.3 | 1.1 | 9.6 | 10.1
